Test results reported in the supplement of paper PMC4862054.
Several values for one entry are separate records, joined by “and”; a condition that tells them apart may be missing. Identical values can stand only once.

Tests used:
Details in all cases: incubation time: 72 h
HCC1143 [1] = assay: drug sensitivity score (DSS), CellTiter-Glo (DSS (AUC-based score)); higher = stronger drug effect (viability inhibition or cytotoxicity); extreme values may be limits of the assay
Summary of the method: (§1)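 Breast cancer cells were seeded into 384-well plates containing compound at 5 concentrations in 10-fold steps over a compound-specific 10,000-fold range and incubated 72 h. After CellTox Green and CellTiter-Glo readings, each plate was normalised to 0.1 % DMSO and a positive kill control. The drug sensitivity score rests on the area under the fitted dose-response curve.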

BT-549 [2] = assay: as above
Summary of the method: as §1

CAL-85-1 [3] = assay: as above
Summary of the method: as §1

MDA-MB-436 [4] = assay: as above
Summary of the method: as §1

HDQ-P1 [5] = assay: as above
Summary of the method: as §1

DU-4475 [6] = assay: as above
Summary of the method: as §1

Hs578T [7] = assay: as above
Summary of the method: as §1

HCC1599 [8] = assay: as above
Summary of the method: as §1

MCF-10A = assay: as above
Summary of the method: as §1

HCC1143 [9] = assay: normalised viability (% of control), CellTiter-Blue; higher = more viable cells (about 100 = DMSO control)
Procedure: (§2)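 DSRT, CellTiter-Blue viability, 72 h incubation. Signal is normalised to DMSO and benzethonium chloride controls. Value is the normalised response at dose 3.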

CAL-148 = assay: as above
Procedure: as §2

BT-549 [10] = assay: as above
Procedure: as §2

CAL-85-1 [11] = assay: as above
Procedure: as §2

MDA-MB-436 [12] = assay: as above
Procedure: as §2

CAL-120 = assay: as above
Procedure: as §2

BT-474 = assay: as above
Procedure: as §2

HDQ-P1 [13] = assay: as above
Procedure: as §2

DU-4475 [14] = assay: as above
Procedure: as §2

Hs578T [15] = assay: as above
Procedure: as §2

MFM-223 = assay: as above
Procedure: as §2

MDA-MB-453 = assay: as above
Procedure: as §2

HCC1599 [16] = assay: as above
Procedure: as §2

MDA-MB-231 = assay: as above
Procedure: as §2

HCC1937 = assay: as above
Procedure: as §2

SK-BR-3 = assay: as above
Procedure: as §2

MDA-MB-468 = assay: as above
Procedure: as §2

CAL-51 = assay: as above
Procedure: as §2

## CC(=O)O[C@@]12CO[C@@H]1C[C@H](O)[C@@]1(C)C(=O)[C@H](O)C3=C(C)[C@@H](OC(=O)[C@H](O)[C@@H](NC(=O)OC(C)(C)C)c4ccccc4)C[C@@](O)([C@@H](OC(=O)c4ccccc4)[C@H]21)C3(C)C [Docetaxel]
HCC1143 [1]
  drug sensitivity score: 23.7
BT-549 [2]
  drug sensitivity score: 30.5
CAL-85-1 [3]
  drug sensitivity score: 25.6
MDA-MB-436 [4]
  drug sensitivity score: 22
HDQ-P1 [5]
  drug sensitivity score: 10.6
DU-4475 [6]
  drug sensitivity score: 15.1
Hs578T [7]
  drug sensitivity score: 27.2
HCC1599 [8]
  drug sensitivity score: 16.7
MCF-10A
  drug sensitivity score: 20.4
HCC1143 [9]; 10 nM
  normalised viability: 51.7% and 35.2%
CAL-148; 1 nM
  normalised viability: 99.2% and 81.9%
BT-549 [10]; 10 nM
  normalised viability: 28% and 25.4%
CAL-85-1 [11]; 1 nM
  normalised viability: 88.3% and 86.5%
MDA-MB-436 [12]; 10 nM
  normalised viability: 51.1% and 52%
CAL-120; 10 nM
  normalised viability: 32.1% and 30.1%
BT-474; 10 nM
  normalised viability: 49.9% and 46.2%
HDQ-P1 [13]; 1 nM
  normalised viability: 78.7% and 71.2%
DU-4475 [14]; 1 nM
  normalised viability: 86% and 95.2%
Hs578T [15]; 10 nM
  normalised viability: 13.1% and 18.8%
MFM-223; 10 nM
  normalised viability: 59.6% and 53.8%
MDA-MB-453; 1 nM
  normalised viability: 85.9% and 66.5%
HCC1599 [16]; 10 nM
  normalised viability: 110% and 108%
MDA-MB-231; 10 nM
  normalised viability: 34.8% and 32.6%
HCC1937; 10 nM
  normalised viability: 32.2% and 27.2%
SK-BR-3; 10 nM
  normalised viability: 6.91% and 8.46%
MDA-MB-468; 10 nM
  normalised viability: 50% and 41.6%
CAL-51; 1 nM
  normalised viability: 101% and 90.4%

## C[C@]12CC[C@@H]3c4ccc(OC(=O)N(CCCl)CCCl)cc4CC[C@H]3[C@@H]1CC[C@@H]2O [Estramustine]
HCC1143 [1]
  drug sensitivity score: 0
BT-549 [2]
  drug sensitivity score: 0
CAL-85-1 [3]
  drug sensitivity score: 0
MDA-MB-436 [4]
  drug sensitivity score: 0
HDQ-P1 [5]
  drug sensitivity score: 0
DU-4475 [6]
  drug sensitivity score: 0
Hs578T [7]
  drug sensitivity score: 0
HCC1599 [8]
  drug sensitivity score: 0
MCF-10A
  drug sensitivity score: 0
HCC1143 [9]; 9.9 nM
  normalised viability: 105%
CAL-148; 0.99 nM
  normalised viability: 113%
BT-549 [10]; 9.9 nM
  normalised viability: 79.8%
CAL-85-1 [11]; 0.99 nM
  normalised viability: 111%
MDA-MB-436 [12]; 9.9 nM
  normalised viability: 92.1%
CAL-120; 9.9 nM
  normalised viability: 102%
BT-474; 9.9 nM
  normalised viability: 113%
HDQ-P1 [13]; 0.99 nM
  normalised viability: 109%
DU-4475 [14]; 0.99 nM
  normalised viability: 85.1%
Hs578T [15]; 9.9 nM
  normalised viability: 102%
MFM-223; 9.9 nM
  normalised viability: 95.9%
MDA-MB-453; 0.99 nM
  normalised viability: 100%
HCC1599 [16]; 9.9 nM
  normalised viability: 91.4%
MDA-MB-231; 9.9 nM
  normalised viability: 93.8%
HCC1937; 9.9 nM
  normalised viability: 101%
SK-BR-3; 9.9 nM
  normalised viability: 106%
MDA-MB-468; 9.9 nM
  normalised viability: 108%
CAL-51; 0.99 nM
  normalised viability: 88.3%

## CC1(C)CNc2cc(NC(=O)c3cccnc3NCc3ccncc3)ccc21 [Motesanib]
HCC1143 [1]
  drug sensitivity score: 0
BT-549 [2]
  drug sensitivity score: 0
CAL-85-1 [3]
  drug sensitivity score: 0
MDA-MB-436 [4]
  drug sensitivity score: 0
HDQ-P1 [5]
  drug sensitivity score: 0
DU-4475 [6]
  drug sensitivity score: 0
Hs578T [7]
  drug sensitivity score: 0
HCC1599 [8]
  drug sensitivity score: 0
MCF-10A
  drug sensitivity score: 0
HCC1143 [9]; 100 nM
  normalised viability: 79.1%
CAL-148; 10 nM
  normalised viability: 82.5%
BT-549 [10]; 100 nM
  normalised viability: 88.1%
CAL-85-1 [11]; 10 nM
  normalised viability: 91.4%
MDA-MB-436 [12]; 100 nM
  normalised viability: 79.7%
CAL-120; 100 nM
  normalised viability: 71.9%
BT-474; 100 nM
  normalised viability: 87.7%
HDQ-P1 [13]; 10 nM
  normalised viability: 88.1%
DU-4475 [14]; 10 nM
  normalised viability: 90.4%
Hs578T [15]; 100 nM
  normalised viability: 90.8%
MFM-223; 100 nM
  normalised viability: 80.2%
MDA-MB-453; 10 nM
  normalised viability: 82.7%
HCC1599 [16]; 100 nM
  normalised viability: 101%
MDA-MB-231; 100 nM
  normalised viability: 79.2%
HCC1937; 100 nM
  normalised viability: 90.5%
SK-BR-3; 100 nM
  normalised viability: 79.3%
MDA-MB-468; 100 nM
  normalised viability: 113%
CAL-51; 10 nM
  normalised viability: 111%
